Experimental findings from US10004809B2, “Precise delivery of therapeutic agents to cell mitochondria for anti-cancer therapy” (UNIVERSITY OF GEORGIA RESEARCH FOUNDATION, INC., priority 2013, dated 2018) are described below.

Molecules are shown by their SMILES.

What all share (format): cell-based, Human
In data set [1] the test system is MSC cells. As to the kind of experiment: MTT cytotoxicity assay on normal cells. To be noted: 72 h. The procedure: (§1) The cytotoxic behaviors of MITO-DCA, TPP-DCA, Na-DCA, and TPP-Tris-(OH)3 were evaluated using the MTT assay against PC3, DU145, LNCaP, and MSC cells. Cells (2000 cells/well for PC3, DU145, and MSC cells; 5000 cells/well for LNCaP) were seeded on a 96-well plate in 100 μL of desired medium and incubated for 24 h. The cells were treated with different DCA compounds and TPP-Tris-(OH)3 at varying concentrations and incubated for 72 h at 37° C. The cells were then treated with 20 μL of MTT (5 mg/mL in PBS) for 5 h. The medium was removed, the cells were lysed with 100 μL of DMSO, and the absorbance of the purple tormazan was recorded at 550 nm using a Bio-Tek Synergy HT microplate reader. Each well was performed in triplicate. All experiments were repeated three times. Cytotoxicity was expressed as mean percentage increase relative to the unexposed control±SD. Control values were set at 0% cytotoxicity or 100% cell viability. Cytotoxicity data (where appropriate) was fitted to a sigmoidal curve and a three parameters logistic model used to calculate the IC50, which is the concentration of chemotherapeutics causing 50% inhibition in comparison to untreated controls. The mean IC50 is the concentration of agent that reduces cell growth by 50% under the experimental conditions and is the average from at least three independent measurements that were reproducible and statistically significant. The IC50 values were reported at ±99% confidence intervals. This analysis was performed with GraphPad Prism (San Diego, U.S.A).
Background: Formazan colour is commonly taken as a measure of viable cells.

For data set [2], the system named is PC3 cells. Nature of the data set: MTT cytotoxicity assay. Conditions: PC3 cells, MTT. The protocol:
as §1

Data set [3] deals with LNCaP cells. Nature of the data set: MTT cytotoxicity assay. Conditions: LNCaP cells, MTT. The procedure: as §1
The test system of data set [4] is DU145 cells. Nature of the data set: MTT cytotoxicity assay. To be noted: DU145 cells, MTT. The procedure: as §1
The subject of data set [5] is PC3 cells. As to the kind of experiment: Intracellular lactate determination. To be noted: concentration not given. From the text: Cytosolic metabolism of glucose to pyruvate occurs before its entry into mitochondria for oxidative phosphorylation. However, if not metabolized through oxidative phosphorylation as found in cancer, pyruvate gets converted by lactate dehydrogenase through glycolysis to lactate. Glycolysis in the absence of oxidative phosphorylation in cancer causes rise in lactate concentration. To test the ability of MITO-DCA to switch glucose metabolism from glycolysis to oxidative phosphorylation in cancer cells, intracellular lactate levels in glycolytic PC3 cells were measured and compared the value with those observed in less glycolytic LNCaP and normal MSC cells (FIG. 5A). To understand the importance of mitochondria targeting ligand and to explore the importance of a Tris platform to increase number of DCA molecule per targeting ligand, the parent drug Na-DCA and TPP-DCA were used as controls. Treatment of PC3 cells with 50 μM of MITO-DCA for 6 h reduced the intracellular lactate levels by 58±5%. […] Pronounced lactate concentration differences were observed between […] glycolytic PC3 and healthy MSC cells (FIG. 5A). […] None of the DCA compounds has any effect on the lactate levels in MSC cells (FIG. 5A).
PC3, LNCaP, and MSC cells were seeded at a density of 1×10^6 cells/mL on each well of a 12 well plate and allowed to grow overnight at 37° C. under 5% CO2. Cells were treated with 150 μM Na-DCA, 150 μM TPP-DCA, and 50 μM MITO-DCA for 6 h at 37° C. After 6 h, the media was removed and the cells were homogenized. The lysate was added to the enzyme and substrate working reagent mixture and incubated for 30 min. Lactate concentration was measured using Bio-Tek Synergy HT microplate reader at 450 nm and comparing to a standard curve.

Take `O=C(CCCCC[P+](c1ccccc1)(c1ccccc1)c1ccccc1)NC(CO)(CO)CO.[Br-]` [TPP-Tris-(OH)3]: the “Toxicity in normal MSC cells” value in data set [1] is given as “did not show any toxic effects”. Further, the “Toxic effects (cytotoxicity profile)” value in data set [2], in data set [3] and in data set [4] was “did not show any toxic effects” throughout. In data set [5], the “Effect on intracellular lactate levels” value is recorded as “did not show any effect”.
